Source: PubChem BioAssay AID608 (Sanford-Burnham Center for Chemical Genomics, 2007)
Calls of active or inactive are those of the source. How the calls were made is not given here.

What follows are molecules tested against Peptidyl-prolyl cis-trans isomerase FKBP1A (Homo sapiens) (UniProt P62942) (assay: FKBP12 binders, biophysical, NMR detection (AID 608)). Settings: NMR binding, purified FKBP12.
Peptidyl-prolyl cis-trans isomerase FKBP1A (Homo sapiens), sequence (P62942 whole entry, looked up): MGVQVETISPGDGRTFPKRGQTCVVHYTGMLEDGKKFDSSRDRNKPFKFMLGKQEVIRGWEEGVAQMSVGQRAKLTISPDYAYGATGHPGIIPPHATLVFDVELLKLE
`O=C(O)c1csc(-c2cccs2)n1` was tested, and the Kd was > 4 mM (inactive). With `Cc1nnc(SCC(=O)N2CCCCC2)s1` the Kd was > 4 mM (inactive). With `Cc1ccc(C(=O)N2CCOCC2)cc1Cl` the Kd was > 4 mM (inactive). In the case of `CC1(C)CC23C(=O)CCC(O)C2(C)CCC13` (stereo not given), the Kd is reported as > 4 mM (inactive). In the case of `S=c1[nH]nc(-c2cccnc2)n1C1CCCCC1`, the Kd is reported as > 4 mM (inactive). With `N#Cc1cnn(-c2ccc(Cl)cc2)c1N` the Kd was > 4 mM (inactive). For `NC1C2CC3CC1CC(O)(C3)C2` (stereo not given), the Kd was > 4 mM (inactive). In the case of `CCC1(CC)C(=O)N=C(N)NC1=O`, the Kd is reported as > 4 mM (inactive). With `COc1cccc(C(=O)N2CCOCC2)c1` the Kd was > 4 mM (inactive). `N#Cc1cc(-c2ccccc2)oc1N` was tested, and the Kd was > 4 mM (inactive). In the case of `COc1cc(C)c(S(=O)(=O)N2CCN(C)CC2)cc1C`, the Kd is reported as > 4 mM (inactive). `Nc1cc(F)ccc1-n1ccnc1` was tested, and the Kd was > 4 mM (inactive). For `COC(=O)Nc1ccc2ncn(C)c(=O)c2c1`, the Kd was > 4 mM (inactive). For `CN1CCN(C(=O)c2ccccc2N)CC1`, the Kd was > 4 mM (inactive). For `CNC(=S)Nc1ccc2c(c1)OCO2`, the Kd was > 4 mM (inactive). `Cc1ccc(C(C)C)cc2c(C)ccc1-2` was tested, and the Kd was > 4 mM (inactive). For `CCN1CC2(C)CC[C@H](OC)[C@]34C2[C@H](O)C2(OCO[C@@]25C[C@H](OC)[C@H]2C[C@]3(O)C5[C@H]2O)C14`, the Kd was > 4 mM (inactive). For `C#CCCCCCCCCCCCC(=O)CC(O)COC(C)=O` (stereo not given), the Kd was > 4 mM (inactive). In the case of `COc1cccc(NC(=O)c2cnn(C)c2Cl)c1`, the Kd is reported as > 4 mM (inactive). With `Cc1cccc(CSc2nncc(=O)[nH]2)c1` the Kd was > 4 mM (inactive). `O=C1COc2cc(O)ccc21` was tested, and the Kd was > 4 mM (inactive). `O=C(Oc1ccc2c(c1)CCC2)N1CCOCC1` was tested, and the Kd was > 4 mM (inactive). `C/C=C/c1ccc2c(c1)OCO2` was tested, and the Kd was > 4 mM (inactive). In the case of `CC(=O)c1cc(C)ccc1OC(=O)c1cccnc1`, the Kd is reported as > 4 mM (inactive). For `COc1nc(C#N)c(N2CCOCC2)o1`, the Kd was > 4 mM (inactive). `C[C@H]1C[C@@H](O)[C@]2(O)[C@@]13CC(=O)OC[C@@]2(C)[C@](C)(O)C(=O)C3` was tested, and the Kd was > 4 mM (inactive). `CCc1noc(C)c1C(=O)Nc1ncc(C)s1` was tested, and the Kd was > 4 mM (inactive). In the case of `NCc1nnnn1-c1ccccc1`, the Kd is reported as > 4 mM (inactive). `Cn1cc(C(=O)N/N=C/c2ccccc2)ccc1=O` was tested, and the Kd was > 4 mM (inactive). In the case of `Fc1ccc(N2CCNCC2)cc1`, the Kd is reported as > 4 mM (inactive). In the case of `CC1(C)Cc2cccc(C(=O)O)c2O1`, the Kd is reported as > 4 mM (inactive). `O=C1c2ccccc2C(=O)N1CCc1ccccn1` was tested, and the Kd was > 4 mM (inactive). `O=C(Nc1cccc(C(F)(F)F)c1)c1cccnc1` was tested, and the Kd was > 4 mM (inactive). For `CNC(=O)Nc1ccc(C(=O)NC)cc1`, the Kd was > 4 mM (inactive). `Cn1nc(-c2cccs2)cc1N` was tested, and the Kd was > 4 mM (inactive). `CC(C)NC1CS(=O)(=O)CC1O` (stereo not given) was tested, and the Kd was > 4 mM (inactive). In the case of `CN1CCC(N2CCCC(C(N)=O)C2)CC1` (stereo not given), the Kd is reported as > 4 mM (inactive). `OCCNc1nc2ccc(Cl)cc2[nH]1` was tested, and the Kd was > 4 mM (inactive). For `O=C(CSc1ncnc2ccccc12)NCCCO`, the Kd was > 4 mM (inactive). With `O=C(O)c1ccc(-c2cnco2)cc1` the Kd was > 4 mM (inactive). `Cc1c(C)[n+]([O-])c(-c2ccc([N+](=O)[O-])cc2)n1O` was tested, and the Kd was > 4 mM (inactive). With `COC(=O)c1ccccc1NC(=O)c1cc[n+]([O-])cc1` the Kd was > 4 mM (inactive). In the case of `O=C(c1sc2cc(Cl)cc(Cl)c2c1Cl)N1CCOCC1`, the Kd is reported as “inactive”. With `C=CC(C1=CC(=O)C(OC)=CC1=O)c1ccccc1` (stereo not given) the Kd was > 4 mM (inactive). `COc1ccc2[nH]cc(CCNC(C)=O)c2c1` was tested, and the Kd was > 4 mM (inactive). In the case of `CC1(C)CC(=O)c2cnn(-c3nc4ccccc4[nH]3)c2C1`, the Kd is reported as 0.491 mM. In the case of `CCCc1ncc(C(O)c2cccc3ccccc23)n1C` (stereo not given), the Kd is reported as > 4 mM (inactive). `NC(=O)C1CCN(C(=O)c2ccccc2)CC1` was tested, and the Kd was > 4 mM (inactive). For `COC(=O)C[C@@H]1C2(C)C(=O)[C@@H](CC3=C4CC(=O)O[C@@H](c5ccoc5)[C@]4(C)CCC32)[C@H](OC(C)=O)C1(C)C` (stereo not given in full), the Kd was > 4 mM (inactive). With `O=C(Nc1ccc2c(c1)OCO2)c1c(F)cccc1F` the Kd was > 4 mM (inactive). With `CC(=O)Nc1nnc(-c2ccccn2)o1` the Kd was > 4 mM (inactive). For `Nc1cc(=O)[nH]c(=S)n1-c1ccc(F)cc1`, the Kd was > 4 mM (inactive). In the case of `OCCOc1ccc(C2=NCCO2)cc1`, the Kd is reported as > 4 mM (inactive). `CC(C)n1c(-c2ccncc2)n[nH]c1=S` was tested, and the Kd was > 4 mM (inactive). In the case of `CC1Oc2ccccc2OC1C(=O)N1CCOCC1` (stereo not given), the Kd is reported as > 4 mM (inactive). `Cc1noc(C)c1C(=O)NCc1ccco1` was tested, and the Kd was > 4 mM (inactive). In the case of `CC(C)c1ccc(NC(=O)C(N)=O)cc1`, the Kd is reported as > 4 mM (inactive). With `O=C(O)C1CCN(C(=O)c2cccs2)CC1` the Kd was > 4 mM (inactive). In the case of `O=C1CCCN1C(=O)CN1CCOCC1`, the Kd is reported as > 4 mM (inactive). With `Oc1ccccc1-c1cc(C(F)(F)F)[nH]n1` the Kd was > 4 mM (inactive). For `O=C(Nc1cccc(Cl)c1)c1ccncc1`, the Kd was > 4 mM (inactive). In the case of `CC(=O)O[C@H]1C[C@@H](OC(C)=O)C(C)(C)C2C[C@@H](OC(C)=O)[C@]3(C)C(CC[C@@]4(C)[C@H](c5ccoc5)OC(=O)[C@H]5O[C@]543)[C@]21C` (stereo not given in full), the Kd is reported as > 4 mM (inactive). For `c1coc(CNc2nc(-c3ccncc3)cs2)c1`, the Kd was > 4 mM (inactive). `Cc1nc2ccccc2c(=O)[nH]1` was tested, and the Kd was > 4 mM (inactive). For `Nc1cc(F)nc(F)n1`, the Kd was > 4 mM (inactive). In the case of `Cc1nnc(SCC(=O)Nc2ccccc2)[nH]c1=O`, the Kd is reported as > 4 mM (inactive). With `COc1ccc2[nH]c(O)c(NC(C)=O)c2c1` the Kd was > 4 mM (inactive). With `Cc1c(N=Cc2ccco2)c(=O)n(-c2ccccc2)n1C` the Kd was > 4 mM (inactive). In the case of `O=C(c1ccc(Cl)c(F)c1F)N1CCCC1`, the Kd is reported as > 4 mM (inactive). For `CS(=O)(=O)Nc1nnc(Cc2ccccc2)s1`, the Kd was > 4 mM (inactive). For `NC(=O)c1ccc2c(c1)OCO2`, the Kd was > 4 mM (inactive). With `O=c1[nH]c2sc3c(c2c2ncnn12)CCCC3` the Kd was > 4 mM (inactive). With `O=C(COc1ccc2c(c1)OCO2)N1CCOCC1` the Kd was “inactive”. `Cc1ccc(CCC(N)=O)o1` was tested, and the Kd was > 4 mM (inactive). With `Cn1c(C(=O)O)ccc1S(N)(=O)=O` the Kd was > 4 mM (inactive). For `Cc1nn(C)c(C)c1NC(=S)NC1CCCC1`, the Kd was > 4 mM (inactive). For `COc1ccc(C(N)=O)cc1N`, the Kd was > 4 mM (inactive). `O=P(c1ccccc1)(c1ccccc1)C1CCOCC1` was tested, and the Kd was > 4 mM (inactive). With `CC(=O)Oc1ccc(-c2cc(=O)c3c(OC(C)=O)cc(OC(C)=O)cc3o2)cc1` the Kd was > 4 mM (inactive). For `Cn1c(SCCC(=O)O)nnc1-c1cccnc1`, the Kd was > 4 mM (inactive). With `Cn1nnc2cc(C(=O)NC3CCCCC3)ccc21` the Kd was > 4 mM (inactive). `NC1=NC(=O)C(Cc2cccc([N+](=O)[O-])c2)S1` (stereo not given) was tested, and the Kd was > 4 mM (inactive). In the case of `NC1CN2CCC1CC2` (stereo not given), the Kd is reported as > 4 mM (inactive). For `COc1ccc([C@H]2Oc3c(I)c(OC)cc(OC)c3C[C@@H]2O)cc1OC`, the Kd was > 4 mM (inactive). For `OCC(O)C(O)C(O)CO` (stereo not given), the Kd was > 4 mM (inactive). `CNC(=O)C1CC(=O)N(c2ccc(O)cc2)C1` (stereo not given) was tested, and the Kd was > 4 mM (inactive). With `COc1c(O)cccc1O` the Kd was > 4 mM (inactive). `O=C(O)c1cncc(-c2ccccc2)c1` was tested, and the Kd was > 4 mM (inactive). In the case of `O=C(N1CCOCC1)N1CCN(c2ccccn2)CC1`, the Kd is reported as > 4 mM (inactive). With `O=C(O)c1[nH]nc2c1COc1ccccc1-2` the Kd was > 4 mM (inactive). With `Fc1cccc(Cl)c1CN1CCNCC1` the Kd was > 4 mM (inactive). With `OC1CC(c2ccccc2)NC2(CCCC2)C1` (stereo not given) the Kd was > 4 mM (inactive). For `CNC(=S)N1CCN=C1Nc1nc(C)cc(C)n1`, the Kd was > 4 mM (inactive). For `NC(=O)CSc1ccc(-c2ccco2)nn1`, the Kd was > 4 mM (inactive). For `O=C(Nc1cnccn1)c1cccc(C(F)(F)F)c1`, the Kd was > 4 mM (inactive). With `NC(=O)CN=Cc1c(O)[nH]c2ccccc12` the Kd was > 4 mM (inactive). With `O=C(NN1CCOCC1)c1ccccc1F` the Kd was > 4 mM (inactive). For `CC1(O)CC2C=CC1C2` (stereo not given), the Kd was > 4 mM (inactive). `COc1cc(S(=O)(=O)N(C)C)ccc1F` was tested, and the Kd was > 4 mM (inactive). With `CC(C)c1ccccc1OCC(=O)N1CCOCC1` the Kd was > 4 mM (inactive). In the case of `Cn1c(CNc2ccccc2)cc(=O)n(C)c1=O`, the Kd is reported as > 4 mM (inactive). `[O-][n+]1cc(O)c(CN2CCOCC2)c2ccccc21` was tested, and the Kd was > 4 mM (inactive). `COc1c2occc2cc2ccc(=O)oc12` was tested, and the Kd was > 4 mM (inactive). `CC12CCCC(O)(C1)C1CC(C)(C)C1CC2` (stereo not given) was tested, and the Kd was > 4 mM (inactive). In the case of `Cc1nc2ccccc2c(=O)n1-c1cccc(O)c1`, the Kd is reported as > 4 mM (inactive). `NC(=S)NC1CCS(=O)(=O)C1` (stereo not given) was tested, and the Kd was > 4 mM (inactive). With `Cc1[nH]c2ccccc2c(=O)c1CO` the Kd was > 4 mM (inactive). In the case of `O=c1[nH]oc2ccccc12`, the Kd is reported as > 4 mM (inactive). In the case of `c1ccc(-c2csc3ncn4nnnc4c23)cc1`, the Kd is reported as > 4 mM (inactive). With `Cc1cc2nc(SCC(=O)O)nc(C)c2cc1C` the Kd was > 4 mM (inactive). In the case of `c1ccc2c(c1)ncn2CCn1cnc2ccccc21`, the Kd is reported as > 4 mM (inactive). For `COc1ccc2c(c1)[nH]c1c(C)nccc12`, the Kd was > 4 mM (inactive). `C/C1=C\CCC(=O)C2CC(C)(C)C2CC1` (stereo not given) was tested, and the Kd was > 4 mM (inactive). In the case of `O=S(=O)(Nc1ccc2c(c1)oc1ccccc12)N1CCCCC1`, the Kd is reported as > 4 mM (inactive). In the case of `Cn1cc(Cl)c(C(=O)NC2CCCCCC2)n1`, the Kd is reported as > 4 mM (inactive). For `Cn1c(=O)cc(O)c2ccccc21`, the Kd was > 4 mM (inactive). For `O=c1cc(CO)oc(CN2CCCCC2)c1O`, the Kd was > 4 mM (inactive). In the case of `C=CCNC(=O)c1ccc(Cl)cc1Cl`, the Kd is reported as > 4 mM (inactive). `O=C(NC1=NCCS1)c1ccc([N+](=O)[O-])cc1Cl` was tested, and the Kd was > 4 mM (inactive). `O=C1CCc2ccccc2CN1` was tested, and the Kd was > 4 mM (inactive). For `NCCc1ccc(S(N)(=O)=O)cc1`, the Kd was > 4 mM (inactive). `C=C1C(N)CC2CC1C2(C)C` (stereo not given) was tested, and the Kd was > 4 mM (inactive). `CC(C)c1ccc(SCC(=O)N2CCOCC2)cc1` was tested, and the Kd was 5e-05 mM. In the case of `c1ccc(C2NCCc3[nH]cnc32)cc1` (stereo not given), the Kd is reported as > 4 mM (inactive). For `COc1ccc(C)cc1-n1c(-c2ccncc2)n[nH]c1=S`, the Kd was > 4 mM (inactive).
